Source: article PMC2893881 (Bioorganic & medicinal chemistry, 2010)
Like-named read-outs stand apart in the source and are kept apart here.

Key:
[1] = tested on: T. brucei brucei; test: Trypanosoma brucei brucei growth inhibition assay; type: cell-based; details: bloodstream forms clone 427-221a, 40 hours, ATP-bioluminescence, ± standard deviation of the mean
[2] = tested on: animals; details: cited from earlier work
[3] = tested on: Jurkat cells (clone E6-1); test: Jurkat cell cytotoxicity assay; type: cell-based; details: for Selectivity Index = (IC50 Jurkat) / (IC50 T. brucei): Jurkat vs T. brucei; for IC50: read-out: IC50 (μM) Jurkat
[4] = molecular target: TbCatB (Trypanosoma brucei, UniProt Q6R7Z5); test: Cysteine protease inhibition assay, TbCatB; type: biochemical; details: TbCatB 258 nM, Z-Phe-Arg-AMC 10 μM, pH 5.5
[5] = molecular target: rhodesain (Trypanosoma brucei rhodesiense, UniProt Q95PM0); test: Cysteine protease inhibition assay, rhodesain; type: biochemical; details: for IC50 (μM) Cysteine Protease rho (rhodesain): rhodesain 4 nM, Z-Phe-Arg-AMC 10 μM, pH 5.5
[6] = tested on: human lung carcinoma (A549) cells; details: at 1 μM; cited from earlier work
[7] = tested on: patients; details: clinical use, second stage sleeping sickness; cited from earlier work
[8] = Jurkat cells, 40 hr, ATP-bioluminescence

Row | Compound | Selectivity Index = (IC50 Jurkat) / (IC50 T. brucei) [3] | IC50 (μM) T. brucei [1] | IC50 (μM) Jurkat [3, 8] | IC50 (μM) Cysteine Protease rho (rhodesain) [5] | further results
1 | fumitremorgin B [Compound 19] | 5.3 | – | – | – | IC50 ([1]; read-out: IC50 (μM) T. brucei): 19.5 ± 5.9 µM; tremors in animals [2]: cause tremors in animals; IC50 [3, 8]: 104 µM
2 | CN1C(=O)[C@]23CC4=CC=C[C@H](O)[C@H]4N2C(=O)[C@@]1(CO)SS3 [Compound 10, gliotoxin, reference compound] | low ^g (Toxic to Jurkat cells at <1 μM) | nanomolar activity | substantial toxicity to mammalian cells | – | IC50 (μM) Cysteine Protease Tbc (TbcatB) [4]: showed inhibition of TbCatB
3 | CS[C@]1(CO)C(=O)N2[C@H]3C(=CC=C[C@@H]3O)C[C@@]2(SC)C(=O)N1C [Compound 3, bis(methylthio)gliotoxin] | – | – | not being toxic | inactivity | IC50 (μM) Cysteine Protease Tbc (TbcatB) [4]: inactivity
4 | COc1ccc2c3c([nH]c2c1)C(C=C(C)C)N1C(=O)C2CCCN2C(=O)C1(O)C3O (stereo not drawn) [Compound 20, 12,13-dihydroxyfumitremorgin C] | > 15 | trypanocidal in the low micromolar range | – | binds to rhodesain | IC50 [5]: 10.9 µM; IC50 ([3]; Homo sapiens, Jurkat, 40 h): 97.2 µM
5 | CS[C@]1(CO)C(=O)N2[C@H]3C(=CC=C[C@@H]3OC(C)=O)C[C@@]2(SC)C(=O)N1C [Compound 7, 6-acetylbis(methylthio)gliotoxin] | > 15 | trypanocidal in the low micromolar range | – | binds to rhodesain | –
6 | phenylahistin [Compound 2a] | – | – | – | – | cell cycle inhibition activity [6]: cell cycle inhibition activity in the G2/M phase
7 | Nc1nc(N)nc(Nc2ccc([As]3SCC(CO)S3)cc2)n1 (stereo not drawn) [Compound 25, melarsoprol] | – | – | – | – | mortality rate [7]: approximately 5%
8 | CS[C@]1(CO)C(=O)N2c3c(O)cccc3C[C@@]2(SC)C(=O)N1C [Compound 4, dehydrobis(methylthio)gliotoxin] | > 15 | trypanocidal in the low micromolar range | – | binds to rhodesain | –
9 | CS[C@]1(Cc2c[nH]c3ccccc23)NC(=O)[C@](CO)(SC)N(C)C1=O [Compound 8, chetoseminudin B] | – | – | – | inactivity | IC50 (μM) Cysteine Protease Tbc (TbcatB) [4]: inactivity
10 | CN1C(=O)[C@@]23C[C@]4([C@]56C[C@@]78SS[C@@](CO)(C(=O)N7[C@H]5Nc5ccccc56)N(C)C8=O)c5ccccc5N[C@@H]4N2C(=O)[C@]1(CO)SS3 [Compound 12, chaetocin] | low (Toxic to Jurkat cells at <1 μM) | nanomolar activity | substantial toxicity to mammalian cells | – | –
11 | COc1ccc2c3c4n(c2c1)[C@H](C=C(C)C)OOC(C)(C)C[C@@H]4N1C(=O)[C@@H]2CCCN2C(=O)[C@]1(O)[C@H]3O [Compound 17, verruculogen] | – | – | – | – | tremors in animals [2]: cause tremors in animals
12 | CN1C(=O)[C@]23SS[C@@]1(C)C(=O)N2[C@H]1Nc2ccccc2[C@@]1([C@@]12c4ccccc4N[C@@H]1N1C(=O)[C@]4(CO)SS[C@]1(C(=O)N4C)[C@H]2O)[C@@H]3O [Compound 11, verticillin B] | low (Toxic to Jurkat cells at <1 μM) | nanomolar activity | substantial toxicity to mammalian cells | – | –
